Assay results published in patent publication US6500811B2, “Sulfonylaminophosphinic and sulfonylaminophosphonic acid derivatives, methods for their preparation and use” (Aventis Pharma Deutschland GmbH, priority 1998, dated 2002).

What was measured:
Assay type in all cases: biochemical
aggrecanase = experiment: Aggrecanase activity from rat chondrosarcoma cell supernatant, rAgg1mut cleavage detected by BC-3 Western blot; conditions: RCS cell culture supernatant, 1 h preincubation, 4 h incubation with rAgg1mut
Procedure: Preparation and determination of the enzymatic activity of the catalytic domain of aggrecanase using rat chondrosarcoma cells:
For the generation of the as yet not identified “aggrecanase” activity, rat chondrosarcoma cells (RCS) were used. Lark et al.; 270 J. BIOL. CHEM. 2550 (1995). These cells were inoculated into 96-well cell culture plates precoated with poly-L-lysine (80,000 cells/well). After stimulation of the RCS cells with retinoic acid (0.67 μM) and an incubation time of 47 hours (h) at 37° C. and 5% CO2, these cells generate the “aggrecanase” activity. The test substance compound 1 was then preincubated for 1 h in the “aggrecanase”-containing cell culture supernatant before 5 μg of eucaryotic rAgg1mut (Buttner et al., 333 BIOCHEM. J. 159 (1998); Hughes et al., 272 J. BIOL. CHEM. 20269 (1997)) were added for the detection of the “aggrecanase” cleavage activity in the cell culture supernatant of the RCS cells. After an incubation time of 4 h, the cell culture supernatant was removed and the cleavage products of the rAgg1mut fusion proteins generated by the “aggrecanase” activity were detected by means of SDS-polyacrylamide gel electrophoresis and Western Blot analyses with the monoclonal antibody BC-3. Hughes et al., 305 BIOCHEM. J. 799 (1995). […] The less cleaved rAgg1mut was detected, the more efficacious was the tested compound of the formula I.
The IC50 values listed in Table 3 are determined as those inhibitor concentrations which in each case led to a 50% inhibition of the enzyme aggrecanase.

[1] = biological target: T1, neutrophil collagenase (MMP-8) (Homo sapiens, UniProt P22894); experiment: Enzymatic activity of the catalytic domain of neutrophil collagenase, fluorogenic substrate; conditions: pH 6.5, 15 min preincubation
T1 construct: catalytic domain of human stromelysin and of neutrophil collagenase; made in house
T1 sequence (P22894 100-262 limits assumed): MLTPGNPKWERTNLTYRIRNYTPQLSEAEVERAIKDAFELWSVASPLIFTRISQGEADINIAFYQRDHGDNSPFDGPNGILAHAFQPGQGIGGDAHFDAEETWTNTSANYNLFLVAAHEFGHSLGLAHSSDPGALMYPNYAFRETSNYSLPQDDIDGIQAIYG
Procedure: (§1) Preparation and determination of the enzymatic activity of the catalytic domain of human stromelysin and of neutrophil collagenase.
(§2) The two enzymes—stromelysin (“MMP-3”) and neutrophil collagenase (“MMP-8”)—were prepared according to Ye et al., 31 BIOCHEMISTRY 11231 (1992). For the measurement of the enzyme activity or of the enzyme inhibitor action, 70 μl of buffer solution and 10 μl of enzyme solution are incubated for 15 minutes with 10 μl of a 10% strength (v/v) aqueous dimethyl sulfoxide solution which optionally contains the enzyme inhibitor. After addition of 10 μl of a 10% strength (v/v) aqueous dimethyl sulfoxide solution which contains 1 mmol/l of the substrate, the enzyme reaction is monitored by fluorescence spectroscopy (328 nm (ex)/393 nm(em)).
(§3) The enzyme activity is shown as extinction increase/minute. The IC50 values listed in Table 2 are determined as those inhibitor concentrations which in each case lead to a 50% inhibition of the enzyme.
(§4) The buffer solution contains 0.05% Brij (Sigma, Deisenhofen, Germany) and 0.1 mol/l of tris/HCl, 0.1 mol/l of NaCl, 0.01 mol/l of CaCl2 and 0.1 mol/l of piperazine-N,N′-bis[2-ethanesulfonic acid] (pH=6.5).
(§5) The enzyme solution contains 5 μg/ml of one of the enzyme domains prepared according to Ye et al. The substrate solution contains 1 mmol/l of the fluorogenic substrate (7-methoxycoumarin4-yl)acetyl-Pro-Leu-Gly-Leu-3-(2′,4′-dinitrophenyl)-L-2,3-diaminopropionyl-Ala-Arg-NH2 (Bachem, Heidelberg, Germany).

stromelysin (MMP-3) = biological target: T2, stromelysin (MMP-3) (Homo sapiens, UniProt P08254); experiment: Enzymatic activity of the catalytic domain of human stromelysin, fluorogenic substrate; conditions: pH 6.5, 15 min preincubation
T2 construct: enzymatic activity of the catalytic domain of human stromelysin; made in house
T2 sequence (P08254 100-272 limits assumed): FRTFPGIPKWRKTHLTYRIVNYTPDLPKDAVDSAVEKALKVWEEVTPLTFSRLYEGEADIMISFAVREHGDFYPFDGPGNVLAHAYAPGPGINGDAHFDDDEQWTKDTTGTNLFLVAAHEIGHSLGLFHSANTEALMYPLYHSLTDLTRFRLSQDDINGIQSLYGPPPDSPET
Procedure: as §1, §2, §3, §4, §5

| SMILES | IC50 (aggrecanase) [nM] | IC50 [1] [nM] | IC50 (stromelysin (MMP-3)) [nM] |
| --- | --- | --- | --- |
| O=P(O)(O)CCNS(=O)(=O)c1ccc(-c2ccc(N3CCCC3)cc2)cc1 [Example 16] | 28000 | – | – |
| CCOP(=O)(O)C(NS(=O)(=O)c1ccc(-c2ccc(Cl)cc2)cc1)c1ccccc1 (racemic) [Example 2, Monoethyl (R,S)-[1-(4′-chlorobiphenyl-4-sulfonylamino)-1-phenylmethyl]phosphonate] | 79000 | 200 | 5000 |
| O=P(O)(O)CCNS(=O)(=O)c1ccc(-c2ccc(Cl)cc2)cc1 [Example 13] | 50000 | – | – |
| O=C(O)C(CCP(=O)(O)O)NS(=O)(=O)c1ccc(-c2ccc(Cl)cc2)cc1 (stereo not drawn) [Example 14] | 55000 | – | – |
| CC(NS(=O)(=O)c1ccc(-c2ccc(Cl)cc2)cc1)P(=O)(O)O (racemic) [Example 5, (R,S)-[1-(4′-Chlorobiphenyl-4-sulfonylamino)ethyl]phosphonic acid] | 25000 | 5 | 100 |
| O=P(O)(O)C(NS(=O)(=O)c1ccc(-c2ccc(Cl)cc2)cc1)c1ccccc1 (racemic) [Example 3, (R,S)-[(4′-Chlorobiphenyl-4-sulfonylamino)phenylmethyl]-phosphonic acid] | 22000 | 7 | 100 |
| CC(C)CC(NS(=O)(=O)c1ccc(-c2ccc(Cl)cc2)cc1)P(=O)(O)O (racemic) [Example 6, (R,S)-[1-(4′-chlorobiphenyl-4-sulfonylamino)-3-methylbutyl]-phosphonic acid] | 2400 | 3 | 30 |
| COP(=O)(OC)C(O)CC(NS(=O)(=O)c1ccc(-c2ccc(Cl)cc2)cc1)c1ccc(C(F)(F)F)cc1 (stereo not drawn) [Example 10] | 2100 | – | – |
| CC(C)[C@H](NS(=O)(=O)c1ccc(-c2ccc(Cl)cc2)cc1)P(=O)(O)O [Example 1, (R)-[1-(4′-Chlorobiphenyl-4-sulfonylamino)-2-methylpropyl]-phosphonic acid] | 600 | 1 | 6 |
| O=C(O)C(CCC(NS(=O)(=O)c1ccc(-c2ccc(Cl)cc2)cc1)P(=O)(O)O)NS(=O)(=O)c1ccc(-c2ccc(Cl)cc2)cc1 (stereo not drawn) [Example 21] | 520 | – | – |
| O=P(O)(O)C(Cc1c[nH]c2ccccc12)NS(=O)(=O)c1ccc(-c2ccc(Cl)cc2)cc1 (racemic) [Example 4, (R,S)-[1-(4′-Chlorobiphenyl-4-sulfonylamino)-2-(1H-indol-3-yl)-ethyl]phosphonic acid] | 12000 | 60 | 500 |
| CC(C)[C@@H](NS(=O)(=O)c1ccc(-c2ccc(Cl)cc2)cc1)P(=O)(O)O [Example 18] | 60000 | 1000 | 10000 |
| CC(C)[C@H](NS(=O)(=O)CCc1ccc(-c2ccc(Cl)cc2)cc1)P(=O)(O)O [Example 25] | – | 2 | 3 |
| CC(C)[C@H](NS(=O)(=O)c1ccc(-c2ccc(N3CCCC3)cc2)cc1)P(=O)(O)O [Example 19] | – | 2 | 5 |
| CC(NS(=O)(=O)c1ccc(-c2ccc(N3CCCC3)cc2)cc1)P(=O)(O)O (stereo not drawn) [Example 22] | 8300 | 20 | 20 |
| CCCCOc1ccc(S(=O)(=O)N[C@@H](C(C)C)P(=O)(O)O)cc1 [Example 24] | – | 30 | 400 |
| O=P(O)(O)C(O)CC(NS(=O)(=O)c1ccc(-c2ccc(Cl)cc2)cc1)c1ccccc1 (stereo not drawn) [Example 8] | 15000 | – | – |
| CCOP(=O)(O)C(O)CC(NS(=O)(=O)c1ccc(-c2ccc(Cl)cc2)cc1)c1ccccc1 (stereo not drawn) [Example 15] | 67000 | – | – |
| O=C(O)C(CP(=O)(O)O)NS(=O)(=O)c1ccc(-c2ccc(Cl)cc2)cc1 (stereo not drawn) [Example 12] | 50000 | – | – |
| CC(NS(=O)(=O)CCc1ccc(-c2ccc(Cl)cc2)cc1)P(=O)(O)O (stereo not drawn) [Example 20] | 4700 | 2 | 8 |
| O=C(O)C(CP(=O)(O)O)NS(=O)(=O)c1ccc(-c2ccc(N3CCCC3)cc2)cc1 (stereo not drawn) [Example 17] | 69000 | – | – |
